# Measurements published in PubChem BioAssay (NCI).
#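 Growth conditions: 96-well plates. Treatment: test compound, 48 hours, 5 concentrations. Analysis: linear interpolation between bracketing concentrations; unreached endpoints set to highest concentration. TGI is the concentration that stops growth completely.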
# Legend:
# Assay in all cases: NCI tumour cell line growth inhibition, 48 h
# 786-0 renal = tested on: 786-0 renal
# A498 renal = tested on: A498 renal
# A549 NSCLC = tested on: A549 NSCLC
# ACHN renal = tested on: ACHN renal
# CAKI-1 renal = tested on: CAKI-1 renal
# CCRF-CEM leukemia = tested on: CCRF-CEM leukemia
# COLO 205 colon = tested on: COLO 205 colon
# DLD-1 colon = tested on: DLD-1 colon
# DMS 114 small cell lung = tested on: DMS 114 small cell lung
# DMS 273 small cell lung = tested on: DMS 273 small cell lung
# EKVX NSCLC = tested on: EKVX NSCLC
# HCC-2998 colon = tested on: HCC-2998 colon
# HCT-116 colon = tested on: HCT-116 colon
# HCT-15 colon = tested on: HCT-15 colon
# HL-60(TB) leukemia = tested on: HL-60(TB) leukemia
# HOP-18 NSCLC = tested on: HOP-18 NSCLC
# HOP-62 NSCLC = tested on: HOP-62 NSCLC
# HOP-92 NSCLC = tested on: HOP-92 NSCLC
# HT29 colon = tested on: HT29 colon
# IGROV1 ovarian = tested on: IGROV1 ovarian
# K-562 leukemia = tested on: K-562 leukemia
# KM12 colon = tested on: KM12 colon
# KM20L2 colon = tested on: KM20L2 colon
# LOX IMVI melanoma = tested on: LOX IMVI melanoma
# LXFL 529 NSCLC = tested on: LXFL 529 NSCLC
# M14 melanoma = tested on: M14 melanoma
# M19-MEL melanoma = tested on: M19-MEL melanoma
# MALME-3M melanoma = tested on: MALME-3M melanoma
# MOLT-4 leukemia = tested on: MOLT-4 leukemia
# NCI-H23 lung = tested on: NCI-H23 lung
# NCI-H460 lung = tested on: NCI-H460 lung
# NCI-H522 lung = tested on: NCI-H522 lung
# OVCAR-3 ovarian = tested on: OVCAR-3 ovarian
# OVCAR-4 ovarian = tested on: OVCAR-4 ovarian
# OVCAR-5 ovarian = tested on: OVCAR-5 ovarian
# OVCAR-8 ovarian = tested on: OVCAR-8 ovarian
# RPMI-8226 leukemia = tested on: RPMI-8226 leukemia
# RXF 393 renal = tested on: RXF 393 renal
# SF-268 CNS = tested on: SF-268 CNS
# SF-295 CNS = tested on: SF-295 CNS
# SF-539 CNS = tested on: SF-539 CNS
# SK-MEL-2 melanoma = tested on: SK-MEL-2 melanoma
# SK-MEL-5 melanoma = tested on: SK-MEL-5 melanoma
# SK-OV-3 ovarian = tested on: SK-OV-3 ovarian
# SN12C renal = tested on: SN12C renal
# SNB-19 CNS = tested on: SNB-19 CNS
# SNB-75 CNS = tested on: SNB-75 CNS
# SNB-78 CNS = tested on: SNB-78 CNS
# SR leukemia = tested on: SR leukemia
# SW-620 colon = tested on: SW-620 colon
# TK-10 renal = tested on: TK-10 renal
# U251 CNS = tested on: U251 CNS
# UACC-257 melanoma = tested on: UACC-257 melanoma
# UACC-62 melanoma = tested on: UACC-62 melanoma
# UO-31 renal = tested on: UO-31 renal
# XF 498 CNS = tested on: XF 498 CNS
# NCI-H226 lung = tested on: NCI-H226 lung
# RXF-631 renal = tested on: RXF-631 renal
# SK-MEL-28 melanoma = tested on: SK-MEL-28 melanoma
smiles,measurement,setting,value
COc1c(OC)c(N)c2cc(C)c(=O)c(C)cc2c1N,TGI,786-0 renal,> 100 µM
same,TGI,A498 renal,> 100 µM
same,TGI,A549 NSCLC,> 100 µM
same,TGI,ACHN renal,> 100 µM
same,TGI,CAKI-1 renal,> 100 µM
same,TGI,CCRF-CEM leukemia,> 100 µM
same,TGI,COLO 205 colon,> 100 µM
same,TGI,DLD-1 colon,> 100 µM
same,TGI,DMS 114 small cell lung,> 100 µM
same,TGI,DMS 273 small cell lung,> 100 µM
same,TGI,EKVX NSCLC,> 100 µM
same,TGI,HCC-2998 colon,> 100 µM
same,TGI,HCT-116 colon,> 100 µM
same,TGI,HCT-15 colon,> 100 µM
same,TGI,HL-60(TB) leukemia,> 100 µM
same,TGI,HOP-18 NSCLC,> 100 µM
same,TGI,HOP-62 NSCLC,> 100 µM
same,TGI,HOP-92 NSCLC,> 100 µM
same,TGI,HT29 colon,> 100 µM
same,TGI,IGROV1 ovarian,> 100 µM
same,TGI,K-562 leukemia,> 100 µM
same,TGI,KM12 colon,> 100 µM
same,TGI,KM20L2 colon,> 100 µM
same,TGI,LOX IMVI melanoma,> 100 µM
same,TGI,LXFL 529 NSCLC,> 100 µM
same,TGI,M14 melanoma,> 100 µM
same,TGI,M19-MEL melanoma,> 100 µM
same,TGI,MALME-3M melanoma,> 100 µM
same,TGI,MOLT-4 leukemia,> 100 µM
same,TGI,NCI-H23 lung,> 100 µM
same,TGI,NCI-H460 lung,> 100 µM
same,TGI,NCI-H522 lung,> 100 µM
same,TGI,OVCAR-3 ovarian,> 100 µM
same,TGI,OVCAR-4 ovarian,> 100 µM
same,TGI,OVCAR-5 ovarian,> 100 µM
same,TGI,OVCAR-8 ovarian,> 100 µM
same,TGI,RPMI-8226 leukemia,> 100 µM
same,TGI,RXF 393 renal,> 100 µM
same,TGI,SF-268 CNS,> 100 µM
same,TGI,SF-295 CNS,> 100 µM
same,TGI,SF-539 CNS,> 100 µM
same,TGI,SK-MEL-2 melanoma,> 100 µM
same,TGI,SK-MEL-5 melanoma,> 100 µM
same,TGI,SK-OV-3 ovarian,> 100 µM
same,TGI,SN12C renal,> 100 µM
same,TGI,SNB-19 CNS,> 100 µM
same,TGI,SNB-75 CNS,> 100 µM
same,TGI,SNB-78 CNS,> 100 µM
same,TGI,SR leukemia,45.7 µM
same,TGI,SW-620 colon,35 µM
same,TGI,TK-10 renal,> 100 µM
same,TGI,U251 CNS,> 100 µM
same,TGI,UACC-257 melanoma,> 100 µM
same,TGI,UACC-62 melanoma,> 100 µM
same,TGI,UO-31 renal,> 100 µM
same,TGI,XF 498 CNS,> 100 µM
O/N=C/c1cc2c(cc1Br)OCO2,TGI,786-0 renal,> 100 µM
same,TGI,A498 renal,> 100 µM
same,TGI,A549 NSCLC,> 100 µM
same,TGI,ACHN renal,> 100 µM
same,TGI,CAKI-1 renal,> 100 µM
same,TGI,CCRF-CEM leukemia,> 100 µM
same,TGI,COLO 205 colon,> 100 µM
same,TGI,DLD-1 colon,> 100 µM
same,TGI,DMS 273 small cell lung,> 100 µM
same,TGI,EKVX NSCLC,> 100 µM
same,TGI,HCC-2998 colon,> 100 µM
same,TGI,HCT-116 colon,> 100 µM
same,TGI,HCT-15 colon,> 100 µM
same,TGI,HL-60(TB) leukemia,> 100 µM
same,TGI,HOP-18 NSCLC,> 100 µM
same,TGI,HOP-62 NSCLC,> 100 µM
same,TGI,HT29 colon,> 100 µM
same,TGI,IGROV1 ovarian,> 100 µM
same,TGI,K-562 leukemia,> 100 µM
same,TGI,KM12 colon,> 100 µM
same,TGI,KM20L2 colon,> 100 µM
same,TGI,LOX IMVI melanoma,> 100 µM
same,TGI,LXFL 529 NSCLC,> 100 µM
same,TGI,M14 melanoma,> 100 µM
same,TGI,M19-MEL melanoma,> 100 µM
same,TGI,MALME-3M melanoma,> 100 µM
same,TGI,MOLT-4 leukemia,> 100 µM
same,TGI,NCI-H226 lung,> 100 µM
same,TGI,NCI-H23 lung,> 100 µM
same,TGI,NCI-H460 lung,> 100 µM
same,TGI,NCI-H522 lung,> 100 µM
same,TGI,OVCAR-3 ovarian,> 100 µM
same,TGI,OVCAR-4 ovarian,> 100 µM
same,TGI,OVCAR-5 ovarian,> 100 µM
same,TGI,OVCAR-8 ovarian,> 100 µM
same,TGI,RPMI-8226 leukemia,> 100 µM
same,TGI,RXF-631 renal,> 100 µM
same,TGI,SF-295 CNS,> 100 µM
same,TGI,SF-539 CNS,> 100 µM
same,TGI,SK-MEL-2 melanoma,> 100 µM
same,TGI,SK-MEL-5 melanoma,> 100 µM
same,TGI,SK-OV-3 ovarian,> 100 µM
same,TGI,SN12C renal,> 100 µM
same,TGI,SNB-19 CNS,> 100 µM
same,TGI,SNB-75 CNS,> 100 µM
same,TGI,SNB-78 CNS,> 100 µM
same,TGI,SR leukemia,> 100 µM
same,TGI,SW-620 colon,> 100 µM
same,TGI,TK-10 renal,> 100 µM
same,TGI,U251 CNS,> 100 µM
same,TGI,UACC-257 melanoma,> 100 µM
same,TGI,UACC-62 melanoma,> 100 µM
same,TGI,UO-31 renal,> 100 µM
N#C/C(=C1\NN=C(N)C(c2ccc(Cl)cc2)=C1O)c1ccc(Cl)cc1,TGI,786-0 renal,> 100 µM
same,TGI,A498 renal,> 100 µM
same,TGI,A549 NSCLC,> 100 µM
same,TGI,ACHN renal,> 100 µM
same,TGI,CAKI-1 renal,> 100 µM
same,TGI,CCRF-CEM leukemia,> 100 µM
same,TGI,COLO 205 colon,> 100 µM
same,TGI,DLD-1 colon,> 100 µM
same,TGI,DMS 114 small cell lung,> 100 µM
same,TGI,DMS 273 small cell lung,> 100 µM
same,TGI,EKVX NSCLC,> 100 µM
same,TGI,HCC-2998 colon,> 100 µM
same,TGI,HCT-116 colon,> 100 µM
same,TGI,HL-60(TB) leukemia,> 100 µM
same,TGI,HOP-18 NSCLC,> 100 µM
same,TGI,HOP-62 NSCLC,> 100 µM
same,TGI,HOP-92 NSCLC,> 100 µM
same,TGI,HT29 colon,> 100 µM
same,TGI,IGROV1 ovarian,> 100 µM
same,TGI,K-562 leukemia,> 100 µM
same,TGI,KM12 colon,> 100 µM
same,TGI,KM20L2 colon,> 100 µM
same,TGI,LOX IMVI melanoma,> 100 µM
same,TGI,LXFL 529 NSCLC,> 100 µM
same,TGI,M14 melanoma,> 100 µM
same,TGI,M19-MEL melanoma,> 100 µM
same,TGI,MALME-3M melanoma,> 100 µM
same,TGI,MOLT-4 leukemia,> 100 µM
same,TGI,NCI-H226 lung,> 100 µM
same,TGI,NCI-H23 lung,> 100 µM
same,TGI,NCI-H460 lung,> 100 µM
same,TGI,NCI-H522 lung,> 100 µM
same,TGI,OVCAR-3 ovarian,> 100 µM
same,TGI,OVCAR-4 ovarian,> 100 µM
same,TGI,OVCAR-5 ovarian,> 100 µM
same,TGI,OVCAR-8 ovarian,> 100 µM
same,TGI,RPMI-8226 leukemia,> 100 µM
same,TGI,RXF 393 renal,> 100 µM
same,TGI,SF-268 CNS,> 100 µM
same,TGI,SF-295 CNS,> 100 µM
same,TGI,SF-539 CNS,> 100 µM
same,TGI,SK-MEL-28 melanoma,> 100 µM
same,TGI,SK-OV-3 ovarian,> 100 µM
same,TGI,SN12C renal,> 100 µM
same,TGI,SNB-19 CNS,> 100 µM
same,TGI,SNB-75 CNS,> 100 µM
same,TGI,SNB-78 CNS,> 100 µM
same,TGI,SR leukemia,> 100 µM
same,TGI,SW-620 colon,> 100 µM
same,TGI,TK-10 renal,> 100 µM
same,TGI,U251 CNS,> 100 µM
same,TGI,UACC-257 melanoma,> 100 µM
same,TGI,UACC-62 melanoma,> 100 µM
same,TGI,UO-31 renal,> 100 µM
same,TGI,XF 498 CNS,> 100 µM
